This is an account of results in patent US7550469B2, “Heterocyclic amide derivatives and their use as dopamine D3 receptor ligands” (Aventis Pharmaceuticals Inc., priority 2001, dated 2009).

pKi: −log10 of the molar value.

One test has as its target T1, cloned human alpha-1A adrenergic receptors (α1a) (Homo sapiens, UniProt P35348).
T1 construct: expressed in transfected cells; host or cells: CHO cells, G418-resistant clone, pcDNA3 vector; membrane fragments
T1 sequence (P35348 1-466): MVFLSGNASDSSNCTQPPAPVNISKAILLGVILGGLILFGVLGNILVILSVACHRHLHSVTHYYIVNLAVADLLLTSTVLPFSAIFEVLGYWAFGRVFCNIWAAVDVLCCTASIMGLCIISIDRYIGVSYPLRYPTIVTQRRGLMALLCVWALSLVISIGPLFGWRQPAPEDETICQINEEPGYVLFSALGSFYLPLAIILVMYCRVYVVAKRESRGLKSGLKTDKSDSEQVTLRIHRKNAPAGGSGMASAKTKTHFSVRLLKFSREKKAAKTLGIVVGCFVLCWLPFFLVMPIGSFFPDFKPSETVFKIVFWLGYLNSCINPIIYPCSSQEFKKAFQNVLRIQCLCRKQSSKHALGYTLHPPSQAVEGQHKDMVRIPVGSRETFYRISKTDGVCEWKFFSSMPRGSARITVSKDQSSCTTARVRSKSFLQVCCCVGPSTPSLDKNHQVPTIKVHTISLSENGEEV
As to the kind of experiment: [3H]Prazosin binding to cloned human alpha-1A adrenergic receptors expressed in CHO cells. As to conditions: Inh @ 1 uM. From the text:
^3H]PRAZOSIN BINDING TO CLONED HUMAN ALPHA-1A ADRENERGIC RECEPTORS (α1a) EXPRESSED IN CHINESE HAMSTER OVARY CELLS (CHO)
Purpose: This in vitro assay is designed as a screen to identify compounds displaying a affinity for the human α1a adrenoceptor subtype expressed in the membrane fragments of CHO cells. The assay measures the ability of the test compounds to displace [^3H] prazosin from α1a sites. • The identification of multiple vascular α1-addrenoceptors (α1a, α1b, α1d) in vitro has provided impetus to define the role(s) of these subtypes in cardiovascular regulation in vivo (Vargas and Gorman, 1995). […] Prazosin is a potent antagonist of the human α1a-adrenoceptor subtype, which has been cloned and is expressed in the membrane fragments of CHO cells. hα1a Receptor: The cloning of the human α1a cDNA was accomplished first by screening a human prostate cDNA library (Clontech), from which a portion of the coding region was obtained. This DNA fragment was then used to screen a human leukocyte genomic library (Clontech), and the rest of the coding sequence was obtained. Later these two fragments were spliced together. The entire coding sequence was then fully sequenced including matching PCR sequence with original genomic coding sequence, thus ensuring splice sites were joined correctly (Schwinn et al., 1995). Once sequenced, the gene was subcloned into the expression vector pcDNA3 (Invitrogen). Plasmid DNA was then used for transfection into CHO cells and G418 resistant clones were isolated. A clone expressing high levels of the hα1a receptor (as determined by mRNA and receptor binding data) was chosen and pharmacologically characterized. Culture Media: Media Ingredients for Adherent α1a expressing CHO Culture: • A. HAM's F-12 (Cellgro) • B. 10% 0.2 micron filtered Fetal Bovine Serum (FBS)(Cellgro) • C. 1% 0.2 micron filtered Penicillin-Streptomycin (Celigro) • D. G418 0.2 micron filtered (Geneticin 400 μg/ml)(Cellgro) • Cells are cultured using established methods and procedures in either 150×25 mm culture plates (scale up to 100 plates) or a combination of these plates and 70 roller bottles. One culturing/harvest cycle typically requires 2 weeks and yields between 100-400 mg protein. Plates or bottles are incubated at 37° C.+5% CO2. Storage: Cells are harvested by mechanical scraping, washed using PBS, collected in 250 ml Corning polypropylene centrifuge tubes, spun down (1500RPM) and resuspended in dH2O 10% DMSO (final volume per harvest is approximately 50 ml). Protein determination is made using the Biorad DC Assay Kit. Finally, the appropriate volume is aliquoted into a 2 ml Corning Cryovial (10 mg/1-1.5 ml) which is stored at −80° C. Current Lot Data:
Assay Requirement: 0.5 cryovials per 96 well plate (assay volume=200 μl/well) [^3H]-Ligand: [7-methoxy-^3H]-Prazosin: 1.0 nM (NEN, NET-823) • 70-87 Ci/mmol Materials: Phentolamine mesylate (Research Biochemicals Int. #P-131) • 96 well flat bottom plates (Beckman) • Unifilter GF/B Plate (Packard) • Polyethylenimine (Sigma #P-3134) • TomTec or Packard Filtermate 196 Cell Harvesters • Packard TopCount Scintillation Counter Buffers: A: 50 mM Tris HCl; 0.1% ascorbate, pH 7.7 (incubation buffer) • B: 50 mM Tris HCl; pH 7.7 (wash buffer) Procedure: Assay additions are as follows (in the order indicated): • Total Binding=50 μl buffer A+50 μl [^3H]prazosin+100 μl membrane • Nonsp. Bd.=50 μl 10 μM phentolamine+50 μl [^3H]prazosin+100 μl membrane • Test Cpd.=50 μl compound+50 μl [^3H]prazosin+100 μl membrane • Compounds to be evaluated are weighed out to yield a 10 mM stock solution in DMSO in a 24 well polystyrene plate. This is diluted to a 0.5 mM stock in dH2O. Serial dilutions in Buffer A are made from which 50 μl additions to the plate are made in duplicate in order to achieve the final concentrations desired. Typically, one 96 well plate is used to evaluate 11 compounds at 4 concentrations (10^−6-10^−9 M) in duplicate. […]
With `O=C(NCCCCN1CCN(c2csc3cc(C(F)(F)F)ccc23)CC1)c1ccc(Cl)cc1` [compound 815548], the “halpha 1 % I h = human” value turned out to be 27% Inh @ 1 uM.

Consider `COc1ccccc1C(=O)NCCCCN1CCN(c2csc3cc(C(F)(F)F)ccc23)CC1` [compound 815554], for which the “halpha 1 % I h = human” value was found to be 40% Inh @ 1 uM.

Consider `O=C(NCCCCN1CCN(c2csc3cc(C(F)(F)F)ccc23)CC1)c1ccc(C(F)(F)F)cc1` [compound 815555], for which the “halpha 1 % I h = human” value amounted to 24% Inh @ 1 uM.

The same test, now with this note: Inh @ 10 uM.
On to `O=C(NCCCCN1CCN(c2csc3cc(C(F)(F)F)ccc23)CC1)c1ccc(-c2ccccc2)cc1` [815547A], for which the “halpha 1 % I h = human” value is recorded as 18.7% @ 10 uM.

For the compound `CCOc1ccc(C(=O)NCCCCN2CCN(c3csc4cc(C(F)(F)F)ccc34)CC2)cc1` [compound 815541], the “halpha 1 % I h = human” value came to 48% Inh @ 10 uM.

On to `CCCCOc1ccc(C(=O)NCCCCN2CCN(c3csc4cc(C(F)(F)F)ccc34)CC2)cc1` [compound 815545], for which the “halpha 1 % I h = human” value is listed as 25% Inh @ 10 uM.

The test is the same for the next values; noted with them: h = human; piperazines (n = 1) vs homopiperazines (n = 2); read-out: h-α1 Ki.
The pKi is the negative decadic logarithm of the Ki, by convention in mol/L. Regarding `O=C(NCCCCN1CCCN(c2csc3cc(F)ccc23)CC1)c1ccc2ccccc2c1` [822223G], the pKi was 6.91.

In the case of `O=C(NCCCCN1CCCN(c2csc3cc(F)ccc23)CC1)c1cc2ccccc2s1` [822224G], the pKi was 7.08.

Take `O=C(NCCCCN1CCCN(c2csc3cc(F)ccc23)CC1)c1ccco1` [S981843]: the pKi was 8.25.

For `O=C(NCCCCN1CCCN(c2csc3cc(F)ccc23)CC1)c1ccc(OC(F)(F)F)cc1` [compound 822152], the pKi was 6.91.

On to `O=C(NCCCCN1CCCN(c2csc3cc(F)ccc23)CC1)c1cccc(F)c1` [compound 822154], for which the pKi is 7.38.

Consider `COc1ccccc1C(=O)NCCCCN1CCCN(c2csc3cc(F)ccc23)CC1` [compound 822157], for which the pKi is 7.56.

As for `CC(C)(C)c1ccc(C(=O)NCCCCN2CCCN(c3csc4cc(F)ccc34)CC2)cc1` [compound 822198], the pKi is 6.68.

The test is the same for the next values; noted with them: human α-1; 6-fluoro vs 6-trifluoromethyl benzo[b]thiophene pairs; read-out: halpha 1 Ki (nM) h = human.
Broadly, the Ki is a measure of affinity in units of concentration, obtained from inhibition or displacement. In the case of `O=C(NCCCCN1CCN(c2csc3cc(C(F)(F)F)ccc23)CC1)c1cc2ccccc2s1` [814238A], the Ki came out at 78.3 nM.

`CCOc1ccc(C(=O)NCCCCN2CCN(c3csc4cc(C(F)(F)F)ccc34)CC2)cc1` [compound 815541]: the Ki was 1110 nM.

With `O=C(NCCCCN1CCN(c2csc3cc(C(F)(F)F)ccc23)CC1)c1ccc(F)cc1F` [compound 815542], the Ki is 68 nM.

Take `O=C(NCCCCN1CCN(c2csc3cc(C(F)(F)F)ccc23)CC1)c1ccc2c(c1)OCO2` [compound 815544]: the Ki was determined as 62 nM.

As to `O=C(NCCCCN1CCN(c2csc3cc(C(F)(F)F)ccc23)CC1)c1sc2ccccc2c1Cl` [compound 815546], the Ki turned out to be 59 nM.

`O=C(NCCCCN1CCN(c2csc3cc(C(F)(F)F)ccc23)CC1)c1ccc(Br)cc1` [compound 815551]: the Ki was determined as 80 nM.

For `O=C(NCCCCN1CCN(c2csc3cc(C(F)(F)F)ccc23)CC1)c1ccco1` [compound 815556], the inhibition constant Ki is 12 nM.

Take `O=C(NCCCCN1CCN(c2csc3cc(C(F)(F)F)ccc23)CC1)c1c(F)cccc1F` [compound 815557]: the Ki turned out to be 72 nM.
